Like-named read-outs stand apart in the source and are kept apart here.

The text below walks through data of US10537601B2, “Method of isolating anti-viral ingredients from Baphicacanthus cusia, compositions comprising them and their medical use” (priority 2016, dated 2020).

This assay concerns influenza virus A/PR/8/34 (H1N1). In words: organism not typed. Type of assay: cell-based. To be noted: read-out: IC50 (anti-viral activity, 50% inhibitory concentration).
The mark [1] stands for this setting: MDCK cells infected with 100TCID50 of influenza A/PR/8/34 (H1N1), treatment for 48 h, Reed-Muench method.

Regarding `O=C1Nc2ccccc2O[C@@H]1O` [Compound of Formula 5, 2-hydroxy-1,4-benzoxazin-3-one], the IC50 under setting [1] was above 200 µM. Consider `O=Cc1c[nH]c2ccccc12` [Compound of Formula 7, 1H-indole-3-carbaldehyde], for which the IC50 under setting [1] stood at 42 µM. Same read-out and setting: with `O=C1COc2ccccc2N1` [Compound of Formula 9, 2H-1,4-benzoxazin-3-one] the figure was above 200 µM. Take `C=C(CO)[C@@H]1CC[C@]2(C)CC[C@]3(C)[C@H](CC[C@@H]4[C@@]5(C)CC[C@H](O)C(C)(C)C5CC[C@]43C)[C@@H]12` (stereo partly drawn) [Compound of Formula 19, lup-20(29)-en-3β, 30-diol]: where the note is “MDCK, 48 h”, the IC50 was determined as 33.6 µM. For the compound `NC(=O)c1ncn([C@@H]2O[C@H](CO)[C@@H](O)[C@H]2O)n1` [ribavirin, reference compound], the IC50 under setting [1] was 30.4 µM.
